The source of these data is article PMC7217817 (Clinical Pharmacokinetics, 2019).

Read-outs that look alike come from different tables or passages of the source.

Series [1] relates to P-gp. The note with it: cited from earlier work; for Mean AUC∞ ratio of victim drug / Mean Cmax ratio of victim drug: Observed.
For another series, the system named is CYP3A. As to conditions: cited from earlier work.
Series [2] has as its target T1, P-gp (Homo sapiens, UniProt P08183). The note with it: in vitro and clinical studies; cited from earlier work.
For series [3] the following is noted: Child–Pugh A patients compared with healthy volunteers; cited from earlier work.
For series [4] the following is noted: single-dose elagolix 150 mg with ketoconazole 400 mg, Observed; cited from earlier work.
Series [5] is described as follows: Clinical multiple-dose pharmacokinetics of elagolix in healthy subjects. It is filed as in vivo, human. As to conditions: for AUCτ / CL/F / Cmax: healthy subjects.
For series [6] the following is noted: cited from earlier work.
Series [7] deals with T1, P-gp. Description: P-gp inhibition. It is filed as in vitro ADME. As to conditions: following administration of 150 or 200 mg of elagolix.
The mark [8] stands for this setting: digoxin day 1 with elagolix 200 mg BID.
Setting [9] is: digoxin day 10 with elagolix 200 mg BID.
Where [10] appears, read: midazolam with elagolix 150 mg QD, Observed.
Setting [11] is: 150 mg QD (N = 6), Day 21, Observed.
[12] abbreviates: 200 mg BID (N = 7), Day 21, Observed.

T1 sequence (P08183 whole entry): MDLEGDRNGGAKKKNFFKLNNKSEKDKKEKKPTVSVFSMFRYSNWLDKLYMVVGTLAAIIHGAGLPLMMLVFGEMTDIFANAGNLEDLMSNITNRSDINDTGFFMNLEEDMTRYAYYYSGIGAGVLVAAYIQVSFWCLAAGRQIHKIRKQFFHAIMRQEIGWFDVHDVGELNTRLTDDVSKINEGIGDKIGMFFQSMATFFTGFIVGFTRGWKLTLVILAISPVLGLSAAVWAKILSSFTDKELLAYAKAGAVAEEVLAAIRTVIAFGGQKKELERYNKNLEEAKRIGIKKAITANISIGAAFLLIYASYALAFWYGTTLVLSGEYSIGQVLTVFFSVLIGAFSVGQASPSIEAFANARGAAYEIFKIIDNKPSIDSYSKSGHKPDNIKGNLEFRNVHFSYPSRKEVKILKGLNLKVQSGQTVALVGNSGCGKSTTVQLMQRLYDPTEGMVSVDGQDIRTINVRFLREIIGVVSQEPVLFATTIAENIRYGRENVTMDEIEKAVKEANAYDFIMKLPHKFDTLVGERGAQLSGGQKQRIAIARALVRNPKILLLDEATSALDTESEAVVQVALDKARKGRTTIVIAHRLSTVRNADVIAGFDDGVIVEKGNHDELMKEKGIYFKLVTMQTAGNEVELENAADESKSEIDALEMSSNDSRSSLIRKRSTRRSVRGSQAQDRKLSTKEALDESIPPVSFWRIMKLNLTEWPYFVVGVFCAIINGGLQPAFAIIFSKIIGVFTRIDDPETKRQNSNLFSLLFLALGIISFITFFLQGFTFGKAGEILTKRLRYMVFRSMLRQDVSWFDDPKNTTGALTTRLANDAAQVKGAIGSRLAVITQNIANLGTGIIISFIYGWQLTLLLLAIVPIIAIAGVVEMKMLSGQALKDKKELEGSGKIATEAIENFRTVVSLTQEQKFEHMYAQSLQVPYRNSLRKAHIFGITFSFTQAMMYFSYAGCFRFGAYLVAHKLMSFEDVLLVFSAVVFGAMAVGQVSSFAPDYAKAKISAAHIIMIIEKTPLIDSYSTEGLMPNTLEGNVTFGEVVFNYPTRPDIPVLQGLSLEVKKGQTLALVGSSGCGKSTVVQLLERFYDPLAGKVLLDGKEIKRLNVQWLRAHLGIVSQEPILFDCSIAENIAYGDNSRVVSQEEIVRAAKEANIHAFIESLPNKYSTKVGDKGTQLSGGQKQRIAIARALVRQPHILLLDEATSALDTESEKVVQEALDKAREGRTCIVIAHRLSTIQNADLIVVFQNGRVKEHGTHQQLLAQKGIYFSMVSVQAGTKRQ

For `C[C@H]1O[C@@H](O[C@H]2[C@@H](O)C[C@H](O[C@H]3[C@@H](O)C[C@H](O[C@H]4CC[C@@]5(C)[C@H](CC[C@@H]6[C@@H]5C[C@@H](O)[C@]5(C)[C@@H](C7=CC(=O)OC7)CC[C@]65O)C4)O[C@@H]3C)O[C@@H]2C)C[C@H](O)[C@@H]1O` [Digoxin, digoxin], in the series on P-gp [1] (setting [8]), the “Mean AUC∞ ratio of victim drug” value was 1.32 and the “Mean Cmax ratio of victim drug” value was 1.73. In the series with P-gp [1] (setting [9]), the “Mean AUC∞ ratio of victim drug” value was 1.26 and the “Mean Cmax ratio of victim drug” value is 1.71. In the series on P-gp [1] (elagolix 200 mg BID, observed), the “Increase in digoxin AUC” value is recorded as about 30% and the “Increase in digoxin Cmax” value is listed as “approximately 70%”.
Consider `Cc1ncc2n1-c1ccc(Cl)cc1C(c1ccccc1F)=NC2` [Midazolam, midazolam], for which the “Decrease in midazolam AUC” value in the series with CYP3A (elagolix 150 mg QD, observed) is 35%. Also, in the series with CYP3A (setting [10]), the “Mean AUC∞ ratio of victim drug” value is reported as 0.65 and the “Mean Cmax ratio of victim drug” value was 0.81.
As for `CO[C@H]1/C=C/O[C@@]2(C)Oc3c(C)c(O)c4c(O)c(c(/C=N/N5CCN(C)CC5)c(O)c4c3C2=O)NC(=O)/C(C)=C\C=C\[C@H](C)[C@H](O)[C@@H](C)[C@@H](O)[C@@H](C)[C@H](OC(C)=O)[C@@H]1C` [Rifampin, rifampin], the “Induction of P-gp expression” value on P-gp [2] is “four folds”.
What is called CL/F is the apparent clearance, not corrected for the fraction that reaches the circulation. As usually defined, the Tmax is the time from dosing to the highest level. A word on the half-life: it is the time needed for the level to fall by half in the phase considered. Low values mean rapid decline, high ones slow decline. Broadly, the Cmax is the highest concentration seen after dosing. Consider `COc1cccc(-c2c(C)n(Cc3c(F)cccc3C(F)(F)F)c(=O)n(C[C@H](NCCCC(=O)O)c3ccccc3)c2=O)c1F` [elagolix], for which, in series [3], the “Impact of hepatic impairment on elagolix exposures” value is “no impact”. Further, the “Mean Cmax ratio of elagolix” value in series [4] was 1.77. In addition, the AUCτ is recorded as 1331 ng●h/mL in series [5] (150 mg QD (N = 6), Day 1, Observed); 1292 ng●h/mL in series [5] (setting [11]); 1813 ng●h/mL in series [5] (200 mg BID (N = 7), Day 1, Observed); 1725 ng●h/mL in series [5] (setting [12]). For the same compound, the figures for the CL/F in series [5] (setting [11]) and in series [5] (setting [12]) were 123 L/h and 144 L/h, respectively. Also, the Tmax in series [5] (human, plasma, oral, 150 mg) came out at 1.3 h. Also, the half-life in series [5] (human, plasma, oral, 150 mg) is 6.42 h; in series [5] (human, plasma, oral, 200 mg) it was 4.29 h. For the same compound, the Cmax in series [5] (human, plasma, oral, 150 mg, 150 mg QD (N = 6), Day 1, Observed) was 507 ng/mL; in series [5] (human, plasma, oral, 200 mg, 200 mg BID (N = 7), Day 1, Observed) it was 712 ng/mL. Further, the “Apparent terminal elimination half-life (t½)” value in series [6] (clinical doses of 150 mg QD and 200 mg BID) is 4 to 6 h. Also, in series [6] (oral administration), the “Time of maximum plasma concentration (Cmax) after dosing” value is 1 h. For the same compound, the “Ki for P-gp below predicted intestinal elagolix concentration in the gastrointestinal lumen” value at P-gp [7] is “approximately 500 fold”.
